According to article PMC5114558, “Reader domain specificity and lysine demethylase-4 family function” (Nature Communications, 2016):
Read-outs that look alike come from different tables or passages of the source. Non-standard residues stand in square brackets, D forms with d. Residues, ends and D or L forms follow the SMILES beside them. *: point of attachment. 5FAM = O=C1OC2(c3ccc(O)cc3Oc3cc(O)ccc32)c2ccc(C(=O)*)cc21; Lys(Me3) = C[N+](C)(C)CCCC[C@H](N)C(=O)O

Target: T1, KDM4A DTD (human KDM4A double tudor domain, 895–1011aa) (Homo sapiens, UniProt O75164)
T1 construct: DNA encoding DTDs (KDM4A 895–1011aa, KDM4B 917–1031aa and KDM4C 877–991aa); (His)6-HaloTag (pFN29) or (His)6 (pET28b); made in house; host or cells: Escherichia coli BL21 (DE3)
T1 sequence (O75164 895-1011): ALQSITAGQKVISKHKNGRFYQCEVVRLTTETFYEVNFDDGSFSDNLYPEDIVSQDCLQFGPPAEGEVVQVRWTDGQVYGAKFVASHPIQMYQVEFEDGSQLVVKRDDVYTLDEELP
Assay: fluorescence polarization (FP) binding, KDM4A-DTD wild-type
Source text: KDM4 protein sequences used in this study correspond to Uniprot ID: O75164 (human KDM4A, isoform 1), O94953 (human KDM4B, isoform1) and Q9H3R0 (human KDM4C, isoform1). Plasmid encoding KDM4A DTD was kindly provided by R-M Xu (Chinese Academy of Sciences). Complementary DNA encoding human KDM4B-DTD was synthesized (Integrated DNA Technologies). Plasmid containing cDNA of full-length KDM4C (clone ID: HsCD00341594) was obtained from Harvard Plasmid Repository. DNA encoding DTDs (KDM4A 895–1011aa, KDM4B 917–1031aa and KDM4C 877–991aa) were cloned into pFN29 (Promega) with N-terminal (His)6-HaloTag or pET28b with N-terminal (His)6 Tag using In-Fusion HD cloning kit (Clontech). Plasmids encoding Xenopus laevis core histones were a generous gift of K. Luger (University of Colorado-Boulder). Site-directed mutagenesis was performed with Q5 Site-Directed Mutagenesis Kit (New England Biolabs).
Peptide sequences are given in Supplementary Table 1. […] A no-protein control with only peptide probe was included. Polarization at each concentration was measured as triplicates in 384-well polystyrene black microplates (Thermo Fisher Scientific 262260) by Biotek Synergy H4 multimode plate reader (light source: xenon flash, offset from top: 7 mm, sensitivity: 60%, excitation: 485/20 nm, emission: 528/20 nm, both parallel and perpendicular, normal read speed). Fraction bound (Fb) at each concentration was calculated based on the corresponding polarization values (P): Fbc=(Pc−Pmin)/(Pmax−Pmin), where Pmin is the polarization value of no-protein control and Pmax is the polarization value of the saturation value for that peptide. Dissociation constants (Kd) were derived by KaleidaGraph, Synergy Software (version 4.1.3) using the following equation: Fb=[protein]/([protein]+Kd).

[1] = Fig. 2e,g,i,j and Fig. 4g,i, pH 7.4, ± s.d. from three experimental replicates, read-out: binding affinity, KDM4A-DTD wild-type (WT)

Row | SMILES | Kd [1] [µM] | other results
1 | CC(C)C[C@H](NC(=O)[C@H](CCC(N)=O)NC(=O)[C@H](CCCCN)NC(=O)[C@H](CCCNC(=N)N)NC(=O)[C@@H]1CCCN1C(=O)[C@H](C)NC(=O)[C@H](CCCC[N+](C)(C)C)NC(=O)CNC(=O)CNC(=O)[C@@H](NC(=O)[C@H](CO)NC(=O)[C@H](CCCCN)NC(=O)[C@H](CCCNC(=N)N)NC(=O)[C@H](C)NC(=O)c1ccc2c(c1)C(=O)OC21c2ccc(O)cc2Oc2cc(O)ccc21)[C@@H](C)O)C(=O)N[C@@H](C)C(=O)N[C@H](C(=O)N[C@@H](CCCCN)C(=O)O)[C@@H](C)O [H3K14me3] (5FAM-ARKSTGG[Lys(Me3)]APRKQLATK-OH) |  | Kd (matrix Fig. 1d and Fig. 3c, pH 7.4, read-out: binding affinity (Kd), KDM4A DTD wild-type): 109 µM
2 | CC(C)C[C@H](NC(=O)[C@H](CCC(N)=O)NC(=O)[C@H](CCCCN)NC(=O)[C@H](CCCNC(=N)N)NC(=O)c1ccc2c(c1)C(=O)OC21c2ccc(O)cc2Oc2cc(O)ccc21)C(=O)N[C@@H](C)C(=O)N[C@H](C(=O)N[C@@H](CCCCN(C)C)C(=O)N[C@@H](C)C(=O)N[C@@H](C)C(=O)N[C@@H](CCCNC(=N)N)C(=O)N[C@@H](CCCCN)C(=O)N[C@@H](CO)C(=O)N[C@@H](C)C(=O)N1CCC[C@H]1C(=O)N[C@@H](C)C(=O)N[C@H](C(=O)O)[C@@H](C)O)[C@@H](C)O [H3K23me2] |  | Kd (pH 7.4, read-out: Kd, KDM4A-DTD wild-type): 9.06 µM
3 | CNCCCC[C@H](NC(=O)[C@@H](NC(=O)[C@H](C)NC(=O)[C@H](CC(C)C)NC(=O)[C@H](CCC(N)=O)NC(=O)[C@H](CCCCN)NC(=O)[C@H](CCCNC(=N)N)NC(=O)c1ccc2c(c1)C(=O)OC21c2ccc(O)cc2Oc2cc(O)ccc21)[C@@H](C)O)C(=O)N[C@@H](C)C(=O)N[C@@H](C)C(=O)N[C@@H](CCCNC(=N)N)C(=O)N[C@@H](CCCCN)C(=O)N[C@@H](CO)C(=O)N[C@@H](C)C(=O)N1CCC[C@H]1C(=O)N[C@@H](C)C(=O)N[C@H](C(=O)O)[C@@H](C)O [H3K23me1] | 98.6 ± 5.4 | 

Continued, in another order:

Row | Kd [1] [µM] | SMILES | other results
4 | 32.3 ± 1.8 | CC(C)C[C@H](NC(=O)[C@H](CCC(N)=O)NC(=O)[C@H](CCCCN)NC(=O)[C@H](CCCNC(=N)N)NC(=O)c1ccc2c(c1)C(=O)OC21c2ccc(O)cc2Oc2cc(O)ccc21)C(=O)N[C@@H](C)C(=O)N[C@H](C(=O)N[C@@H](CCCC[N+](C)(C)C)C(=O)N[C@@H](C)C(=O)N[C@@H](C)C(=O)N[C@@H](C)C(=O)N[C@@H](CCCCN)C(=O)N[C@@H](CO)C(=O)N[C@@H](C)C(=O)N1CCC[C@H]1C(=O)N[C@@H](C)C(=O)N[C@H](C(=O)O)[C@@H](C)O)[C@@H](C)O [H3K23me3R26A] (5FAM-RKQLAT[Lys(Me3)]AAAKSAPAT-OH) | 
5 | 83.7 ± 4.1 | CC(C)C[C@H](NC(=O)[C@H](CCC(N)=O)NC(=O)[C@H](CCCCN)NC(=O)[C@H](CCCNC(=N)N)NC(=O)c1ccc2c(c1)C(=O)OC21c2ccc(O)cc2Oc2cc(O)ccc21)C(=O)N[C@@H](C)C(=O)N[C@H](C(=O)N[C@@H](CCCC[N+](C)(C)C)C(=O)N[C@@H](C)C(=O)N[C@@H](C)C(=O)N[C@@H](CCCNC(=N)N)C(=O)N[C@@H](CCCCN)C(=O)N[C@@H](CO)C(=O)N[C@@H](C)C(=O)N1CCC[C@H]1C(=O)N[C@@H](C)C(=O)N[C@H](C(=O)O)[C@@H](C)O)[C@@H](C)OP(=O)(O)O [H3T22phK23me3] | 
